Drawing on ChEMBL document CHEMBL1144455, “A small molecule-kinase interaction map for clinical kinase inhibitors” (Nat Biotechnol, 2005), this text covers Kd for nine compounds.

Assay [1] deals with Serine/threonine-protein kinase pim-2 (Homo sapiens, UniProt Q9P1W9).
In assay [2] the target is Mitogen-activated protein kinase kinase kinase 4 (Homo sapiens, UniProt Q9Y6R4).
Assay [3] deals with Serine/threonine-protein kinase PAK 6 (Homo sapiens, UniProt Q9NQU5).
Assay [4] deals with T1, Serine/threonine-protein kinase 3 (Mus musculus, UniProt Q9JI10).
T1 sequence (Q9JI10 whole entry): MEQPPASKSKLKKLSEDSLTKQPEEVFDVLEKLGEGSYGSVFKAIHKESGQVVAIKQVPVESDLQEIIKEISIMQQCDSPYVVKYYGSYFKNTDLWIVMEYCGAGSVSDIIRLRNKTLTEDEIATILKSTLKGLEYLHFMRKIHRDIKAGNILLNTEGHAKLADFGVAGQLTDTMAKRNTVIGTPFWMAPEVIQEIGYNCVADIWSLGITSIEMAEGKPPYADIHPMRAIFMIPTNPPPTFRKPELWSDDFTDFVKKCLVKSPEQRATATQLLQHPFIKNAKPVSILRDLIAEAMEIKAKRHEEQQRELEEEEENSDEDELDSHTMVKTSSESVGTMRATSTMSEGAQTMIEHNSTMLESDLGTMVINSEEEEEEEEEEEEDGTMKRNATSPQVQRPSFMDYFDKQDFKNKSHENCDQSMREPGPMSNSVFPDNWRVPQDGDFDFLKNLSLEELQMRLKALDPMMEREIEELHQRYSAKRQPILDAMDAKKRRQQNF

Assay [5] addresses T2, Serine/threonine-protein kinase Nek9 (Homo sapiens, UniProt Q8TD19).
T2 sequence (Q8TD19 whole entry): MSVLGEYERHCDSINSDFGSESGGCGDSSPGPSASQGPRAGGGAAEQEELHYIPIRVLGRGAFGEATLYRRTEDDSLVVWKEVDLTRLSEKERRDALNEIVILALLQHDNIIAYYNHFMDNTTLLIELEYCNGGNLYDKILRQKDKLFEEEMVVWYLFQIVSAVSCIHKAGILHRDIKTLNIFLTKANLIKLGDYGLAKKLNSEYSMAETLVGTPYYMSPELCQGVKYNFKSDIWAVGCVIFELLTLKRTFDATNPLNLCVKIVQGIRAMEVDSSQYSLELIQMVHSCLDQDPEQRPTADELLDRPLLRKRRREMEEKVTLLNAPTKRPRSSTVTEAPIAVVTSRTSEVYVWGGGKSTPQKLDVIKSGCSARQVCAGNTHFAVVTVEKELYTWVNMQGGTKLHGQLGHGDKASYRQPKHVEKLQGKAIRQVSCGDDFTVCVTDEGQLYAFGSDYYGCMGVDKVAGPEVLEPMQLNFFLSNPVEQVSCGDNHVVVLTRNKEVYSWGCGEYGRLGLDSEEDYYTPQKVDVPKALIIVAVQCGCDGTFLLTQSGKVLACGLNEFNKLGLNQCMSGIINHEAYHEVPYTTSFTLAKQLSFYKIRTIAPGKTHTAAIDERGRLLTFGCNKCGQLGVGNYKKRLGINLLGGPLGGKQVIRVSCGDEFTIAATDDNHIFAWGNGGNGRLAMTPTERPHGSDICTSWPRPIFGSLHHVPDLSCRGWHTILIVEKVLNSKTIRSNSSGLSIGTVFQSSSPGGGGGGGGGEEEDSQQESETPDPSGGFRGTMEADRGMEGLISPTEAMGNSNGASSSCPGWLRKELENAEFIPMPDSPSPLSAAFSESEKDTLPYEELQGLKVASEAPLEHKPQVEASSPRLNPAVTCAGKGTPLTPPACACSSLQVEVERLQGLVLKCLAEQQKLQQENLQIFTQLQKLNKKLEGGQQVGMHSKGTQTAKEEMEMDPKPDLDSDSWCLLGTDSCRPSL

A further assay concerns the target Activated CDC42 kinase 1 (Homo sapiens, UniProt Q07912).
A further assay concerns the target Ephrin type-A receptor 5 (Homo sapiens, UniProt P54756).
The target of assay [6] is T3, Serine/threonine-protein kinase Nek2 (Homo sapiens, UniProt P51955).
T3 sequence (P51955 whole entry): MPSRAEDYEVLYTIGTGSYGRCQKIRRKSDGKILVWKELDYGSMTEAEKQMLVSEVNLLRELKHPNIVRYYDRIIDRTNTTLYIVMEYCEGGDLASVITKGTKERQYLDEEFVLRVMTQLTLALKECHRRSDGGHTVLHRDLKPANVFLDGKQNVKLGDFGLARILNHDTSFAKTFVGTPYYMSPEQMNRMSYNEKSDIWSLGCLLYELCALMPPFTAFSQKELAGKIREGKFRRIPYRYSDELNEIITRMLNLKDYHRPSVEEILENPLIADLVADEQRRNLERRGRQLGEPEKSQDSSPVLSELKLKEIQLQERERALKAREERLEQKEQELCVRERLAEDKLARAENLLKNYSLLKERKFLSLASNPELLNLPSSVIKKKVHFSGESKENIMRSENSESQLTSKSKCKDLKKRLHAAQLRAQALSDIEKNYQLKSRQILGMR

In assay [7] the target is Vascular endothelial growth factor receptor 3 (Homo sapiens, UniProt P35916).
Vascular endothelial growth factor receptor 3, sequence (P35916 whole entry): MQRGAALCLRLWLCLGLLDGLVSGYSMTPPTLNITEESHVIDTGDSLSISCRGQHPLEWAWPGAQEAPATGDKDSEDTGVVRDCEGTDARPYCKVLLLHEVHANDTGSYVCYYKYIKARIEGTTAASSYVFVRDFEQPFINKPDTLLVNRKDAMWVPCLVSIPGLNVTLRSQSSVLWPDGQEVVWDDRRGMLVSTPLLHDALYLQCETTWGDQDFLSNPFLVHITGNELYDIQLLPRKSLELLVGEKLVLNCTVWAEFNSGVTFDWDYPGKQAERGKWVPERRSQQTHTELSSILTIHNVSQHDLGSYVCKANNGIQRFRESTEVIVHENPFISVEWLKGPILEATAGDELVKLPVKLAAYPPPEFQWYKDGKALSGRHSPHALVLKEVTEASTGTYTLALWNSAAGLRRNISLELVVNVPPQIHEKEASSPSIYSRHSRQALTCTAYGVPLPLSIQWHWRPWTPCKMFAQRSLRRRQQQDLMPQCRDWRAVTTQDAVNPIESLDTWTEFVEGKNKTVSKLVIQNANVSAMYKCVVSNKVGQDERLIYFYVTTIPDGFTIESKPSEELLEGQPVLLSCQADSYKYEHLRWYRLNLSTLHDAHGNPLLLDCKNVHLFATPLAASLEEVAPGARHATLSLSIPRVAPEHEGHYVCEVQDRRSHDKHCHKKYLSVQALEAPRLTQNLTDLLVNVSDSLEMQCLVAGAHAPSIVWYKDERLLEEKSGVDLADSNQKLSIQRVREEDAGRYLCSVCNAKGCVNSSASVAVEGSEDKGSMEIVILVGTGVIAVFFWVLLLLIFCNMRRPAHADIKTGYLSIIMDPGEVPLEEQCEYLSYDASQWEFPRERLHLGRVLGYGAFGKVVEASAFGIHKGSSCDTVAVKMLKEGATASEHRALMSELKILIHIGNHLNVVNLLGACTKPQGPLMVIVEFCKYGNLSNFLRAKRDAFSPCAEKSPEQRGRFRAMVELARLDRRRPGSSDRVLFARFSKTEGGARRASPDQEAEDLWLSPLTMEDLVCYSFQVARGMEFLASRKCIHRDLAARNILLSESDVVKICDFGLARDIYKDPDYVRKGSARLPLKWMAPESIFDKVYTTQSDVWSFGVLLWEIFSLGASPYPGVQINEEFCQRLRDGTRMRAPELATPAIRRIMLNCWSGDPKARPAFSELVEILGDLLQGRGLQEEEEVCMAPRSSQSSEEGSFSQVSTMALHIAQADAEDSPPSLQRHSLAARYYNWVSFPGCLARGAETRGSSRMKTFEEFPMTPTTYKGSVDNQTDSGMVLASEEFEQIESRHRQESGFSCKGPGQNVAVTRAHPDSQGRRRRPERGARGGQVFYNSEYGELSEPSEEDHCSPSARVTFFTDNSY
Assay [8] addresses Cyclin-dependent kinase 2 (Homo sapiens, UniProt P24941).
The target of assay [9] is Calcium/calmodulin-dependent protein kinase type II subunit beta (Homo sapiens, UniProt Q13554).
Calcium/calmodulin-dependent protein kinase type II subunit beta, sequence (Q13554 whole entry): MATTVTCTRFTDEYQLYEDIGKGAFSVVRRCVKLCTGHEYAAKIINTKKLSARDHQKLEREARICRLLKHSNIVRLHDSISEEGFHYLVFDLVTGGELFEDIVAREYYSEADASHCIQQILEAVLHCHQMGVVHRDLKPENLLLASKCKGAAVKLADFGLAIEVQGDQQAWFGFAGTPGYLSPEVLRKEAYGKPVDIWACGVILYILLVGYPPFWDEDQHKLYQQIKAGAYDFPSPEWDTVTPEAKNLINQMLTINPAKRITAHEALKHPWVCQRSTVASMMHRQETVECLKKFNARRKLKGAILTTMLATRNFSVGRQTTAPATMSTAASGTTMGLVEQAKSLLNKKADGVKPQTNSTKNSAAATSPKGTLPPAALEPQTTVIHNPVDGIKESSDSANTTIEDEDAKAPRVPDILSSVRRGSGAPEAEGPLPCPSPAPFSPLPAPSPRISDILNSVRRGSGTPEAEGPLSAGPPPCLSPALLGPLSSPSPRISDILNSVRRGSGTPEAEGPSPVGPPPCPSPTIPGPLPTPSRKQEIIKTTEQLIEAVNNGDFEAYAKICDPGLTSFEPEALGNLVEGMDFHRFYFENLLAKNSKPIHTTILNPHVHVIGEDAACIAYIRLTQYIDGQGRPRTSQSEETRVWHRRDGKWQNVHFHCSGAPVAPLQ
Assay [10] has as its target Protein-tyrosine kinase 6 (Homo sapiens, UniProt Q13882).
The target in assay [11] is Receptor tyrosine-protein kinase erbB-2 (Homo sapiens, UniProt P04626).
Receptor tyrosine-protein kinase erbB-2, sequence (P04626 whole entry): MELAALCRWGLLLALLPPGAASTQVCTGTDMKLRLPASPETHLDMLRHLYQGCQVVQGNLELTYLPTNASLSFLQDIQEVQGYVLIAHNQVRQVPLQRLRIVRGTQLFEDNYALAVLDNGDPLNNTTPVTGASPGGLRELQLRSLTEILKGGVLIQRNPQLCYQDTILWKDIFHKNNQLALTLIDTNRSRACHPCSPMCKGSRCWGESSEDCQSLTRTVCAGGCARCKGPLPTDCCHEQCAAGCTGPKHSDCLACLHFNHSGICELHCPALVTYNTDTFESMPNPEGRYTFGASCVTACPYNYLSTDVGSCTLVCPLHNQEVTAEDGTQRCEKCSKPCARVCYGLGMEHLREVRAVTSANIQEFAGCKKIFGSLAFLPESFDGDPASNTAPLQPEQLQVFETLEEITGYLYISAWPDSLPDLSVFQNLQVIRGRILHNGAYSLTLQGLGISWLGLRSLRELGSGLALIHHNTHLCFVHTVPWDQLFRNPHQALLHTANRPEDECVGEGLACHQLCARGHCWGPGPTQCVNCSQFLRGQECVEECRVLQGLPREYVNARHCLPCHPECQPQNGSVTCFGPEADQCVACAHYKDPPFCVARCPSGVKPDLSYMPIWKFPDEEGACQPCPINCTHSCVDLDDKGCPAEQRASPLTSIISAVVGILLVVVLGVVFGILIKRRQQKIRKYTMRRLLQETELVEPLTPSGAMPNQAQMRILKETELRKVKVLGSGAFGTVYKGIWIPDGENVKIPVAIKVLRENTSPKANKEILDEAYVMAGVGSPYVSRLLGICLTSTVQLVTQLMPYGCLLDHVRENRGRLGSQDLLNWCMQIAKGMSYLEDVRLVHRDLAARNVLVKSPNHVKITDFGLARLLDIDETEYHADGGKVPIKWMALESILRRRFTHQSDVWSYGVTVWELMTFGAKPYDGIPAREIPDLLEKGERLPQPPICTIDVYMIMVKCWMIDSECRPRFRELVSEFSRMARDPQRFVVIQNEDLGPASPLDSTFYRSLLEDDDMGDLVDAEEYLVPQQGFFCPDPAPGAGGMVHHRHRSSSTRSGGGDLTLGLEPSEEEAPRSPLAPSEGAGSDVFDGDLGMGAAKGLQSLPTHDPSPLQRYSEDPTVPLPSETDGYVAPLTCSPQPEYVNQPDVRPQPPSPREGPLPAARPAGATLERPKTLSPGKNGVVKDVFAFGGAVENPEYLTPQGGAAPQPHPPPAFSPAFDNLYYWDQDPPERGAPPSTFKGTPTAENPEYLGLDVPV
Assay [12] deals with Proto-oncogene tyrosine-protein kinase Src (Homo sapiens, UniProt P12931).
Proto-oncogene tyrosine-protein kinase Src, sequence (P12931 2-536 limits assumed): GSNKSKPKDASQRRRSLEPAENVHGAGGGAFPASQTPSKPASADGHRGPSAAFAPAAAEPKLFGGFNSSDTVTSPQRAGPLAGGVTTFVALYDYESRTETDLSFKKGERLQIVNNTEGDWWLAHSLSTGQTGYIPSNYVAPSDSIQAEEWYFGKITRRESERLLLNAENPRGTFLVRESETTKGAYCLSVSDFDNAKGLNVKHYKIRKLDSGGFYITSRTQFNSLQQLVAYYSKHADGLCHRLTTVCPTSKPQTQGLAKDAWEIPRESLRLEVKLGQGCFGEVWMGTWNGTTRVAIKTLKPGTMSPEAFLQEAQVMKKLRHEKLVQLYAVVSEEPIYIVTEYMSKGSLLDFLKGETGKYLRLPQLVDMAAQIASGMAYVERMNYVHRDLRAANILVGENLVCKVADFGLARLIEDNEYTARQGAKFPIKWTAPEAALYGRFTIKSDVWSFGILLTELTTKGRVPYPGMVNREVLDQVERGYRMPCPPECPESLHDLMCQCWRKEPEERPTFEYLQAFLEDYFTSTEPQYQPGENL

Serine/threonine-protein kinase pim-2, sequence (Q9P1W9 whole entry): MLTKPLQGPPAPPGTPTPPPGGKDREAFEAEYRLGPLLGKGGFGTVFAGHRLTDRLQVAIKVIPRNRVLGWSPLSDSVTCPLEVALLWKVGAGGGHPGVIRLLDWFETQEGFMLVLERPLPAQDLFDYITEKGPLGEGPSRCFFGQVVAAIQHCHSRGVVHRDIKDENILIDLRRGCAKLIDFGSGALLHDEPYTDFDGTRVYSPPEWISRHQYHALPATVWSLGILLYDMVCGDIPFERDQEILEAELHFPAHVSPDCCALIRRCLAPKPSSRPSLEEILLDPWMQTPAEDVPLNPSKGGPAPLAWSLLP
Protein-tyrosine kinase 6, sequence (Q13882 whole entry): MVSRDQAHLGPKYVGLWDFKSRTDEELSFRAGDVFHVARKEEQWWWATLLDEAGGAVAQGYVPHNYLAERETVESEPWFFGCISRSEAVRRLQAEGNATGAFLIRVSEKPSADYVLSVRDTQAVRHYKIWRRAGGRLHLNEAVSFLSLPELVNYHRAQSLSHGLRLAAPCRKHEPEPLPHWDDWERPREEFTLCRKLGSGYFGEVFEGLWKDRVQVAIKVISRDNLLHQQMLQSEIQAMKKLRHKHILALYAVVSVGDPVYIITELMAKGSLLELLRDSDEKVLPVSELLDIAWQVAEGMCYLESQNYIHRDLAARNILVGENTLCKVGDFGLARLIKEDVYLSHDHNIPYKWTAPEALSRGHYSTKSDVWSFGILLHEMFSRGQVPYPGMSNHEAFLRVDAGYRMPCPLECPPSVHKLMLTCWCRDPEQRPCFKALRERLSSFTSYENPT

As usually defined, the Kd is a measure of binding affinity in units of concentration. `C#Cc1cccc(Nc2ncnc3cc(OCCOC)c(OCCOC)cc23)c1` [ERLOTINIB]: the Kd entry (in assay [1]; in assay [2]; in assay [3]; in [4]; in [5]; at Activated CDC42 kinase 1) was “Not Active” throughout. The dissociation constant Kd result (on Ephrin type-A receptor 5; in assay [6]; in assay [7]; in assay [8]; in assay [9]; in assay [10]) was “Not Active” throughout.

For the compound `Cc1ccc(NC(=O)c2ccc(CN3CCN(C)CC3)cc2)cc1Nc1nccc(-c2cccnc2)n1` [IMATINIB], the Kd entry (in [1]; in assay [2]; in [3]; in assay [4]; in assay [5]; at Activated CDC42 kinase 1) was “Not Active” throughout. Further, the Kd result (on Ephrin type-A receptor 5; in assay [6]; in [7]; in [9]; in [11]; in assay [10]) was “Not Active” in each case.

With `O=c1ncn2nc(Sc3ccc(F)cc3F)ccc2c1-c1c(Cl)cccc1Cl` [NEFLAMAPIMOD], the Kd entry (in assay [1]; in assay [2]; in assay [3]; in [4]; in [5]; at Activated CDC42 kinase 1) was “Not Active” in each case. Besides, the Kd result in assay [6], in assay [7], in assay [8], in assay [9], in assay [11] and in [10] was “Not Active” throughout.

Regarding `CCOc1cc2ncc(C#N)c(Nc3ccc(F)c(Cl)c3)c2cc1NC(=O)/C=C/CN(C)C` [PELITINIB], the Kd in assay [12] (read-out: Kd) was 120 nM; in [1] it was “Not Active”; in assay [3] it was “Not Active”; in [5], “Not Active”; in [7], “Not Active”; in assay [8] it was “Not Active”. Further, the dissociation constant Kd entry in [9] and in [10] was “Not Active” each time.

Take `Oc1ccc(-c2nc(-c3ccc(F)cc3)c(-c3ccncc3)[nH]2)cc1` [SB-202190]: the equilibrium dissociation constant (Kd) result in [12], in assay [1], in assay [2], in [3], in assay [4] and in assay [5] was “Not Active” throughout. The Kd entry (on Activated CDC42 kinase 1; at Ephrin type-A receptor 5; in assay [6]; in assay [7]; in [8]; in assay [9]) was “Not Active” in each case. Moreover, the equilibrium dissociation constant (Kd) result in assay [11] is recorded as “Not Active”.

On to `C[S+]([O-])c1ccc(-c2nc(-c3ccc(F)cc3)c(-c3ccncc3)[nH]2)cc1` (configuration not stated) [SB-203580], for which the dissociation constant Kd entry in assay [12], in [1], in assay [2], in assay [3], in [4] and in [5] was “Not Active” in each case. For the same compound, the equilibrium dissociation constant (Kd) entry (at Activated CDC42 kinase 1; on Ephrin type-A receptor 5; in assay [6]; in [7]; in [8]; in assay [9]) was “Not Active” in each case. In addition, the Kd result in [11] was “Not Active”.

With `CC[C@H](CO)Nc1nc(NCc2ccccc2)c2ncn(C(C)C)c2n1` [SELICICLIB], the Kd result in assay [12], in assay [1], in [2], in assay [3], in assay [4] and in assay [5] was “Not Active” in each case. The Kd result (on Activated CDC42 kinase 1; at Ephrin type-A receptor 5; in [6]; in [7]; in assay [9]; in assay [11]) was “Not Active” each time. In assay [10], the Kd result was “Not Active”.

`Oc1c2ccccc2c2c3c(cccc13)N=N2` [SP-600125]: the dissociation constant Kd result (in assay [12]; in assay [2]; in assay [3]; in [5]; on Activated CDC42 kinase 1; at Ephrin type-A receptor 5) was “Not Active” throughout. Further, the Kd result in [6], in assay [7], in assay [11] and in assay [10] was “Not Active” each time.

With `COc1cc2c(N3CCN(C(=O)Nc4ccc(OC(C)C)cc4)CC3)ncnc2cc1OCCCN1CCCCC1` [TANDUTINIB], the dissociation constant (Kd) result in assay [12], in assay [1], in [2], in [3], in assay [4] and in assay [5] was “Not Active” each time. For the same compound, the Kd result (on Activated CDC42 kinase 1; at Ephrin type-A receptor 5; in [6]; in assay [7]; in [8]; in [9]) was “Not Active” throughout. Further, the dissociation constant Kd entry in [11] and in assay [10] was “Not Active” each time.
